The values below come from patent US20110178131A1, “Compounds Which Have Activity At M1 Receptor And Their Uses In Medicine” (priority 2008, published 2011).

Structures can show the parent of a compound that is named as a salt. Bounds are passed on as bounds.

The experiment addresses T1, human muscarinic M1 receptors (Homo sapiens, UniProt P11229).
T1 construct: expressed in transfected cells
T1 sequence (P11229 1-460): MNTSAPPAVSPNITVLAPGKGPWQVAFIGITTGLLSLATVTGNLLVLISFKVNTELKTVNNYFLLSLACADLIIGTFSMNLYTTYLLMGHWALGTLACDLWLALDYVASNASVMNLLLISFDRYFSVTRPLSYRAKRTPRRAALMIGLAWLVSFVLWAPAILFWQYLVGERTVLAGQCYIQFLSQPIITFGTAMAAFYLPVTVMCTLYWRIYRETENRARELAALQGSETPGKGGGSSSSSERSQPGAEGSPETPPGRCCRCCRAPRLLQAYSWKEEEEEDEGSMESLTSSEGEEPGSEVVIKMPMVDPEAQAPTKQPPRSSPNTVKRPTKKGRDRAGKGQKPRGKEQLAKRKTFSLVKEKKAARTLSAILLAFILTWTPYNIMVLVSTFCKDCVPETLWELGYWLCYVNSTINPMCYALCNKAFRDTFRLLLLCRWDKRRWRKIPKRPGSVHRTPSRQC
The experiment is described as follows: FLIPR experiments on M1 receptors (calcium response, agonism). In kind it is cell-based. Conditions: CHO-M1 cells. Here is the method:
FLIPR Experiments on M1 Receptors to Determine a Agonist/Antagonist Potency
Compounds of the invention may be characterized in a functional assay to determine their ability to activate the intracellular calcium pathway in CHO cells with stable expression of human muscarinic M1 receptors using FLIPR (Fluorometric Imaging Plate Reader) technology. Briefly, CHO-M1 cells were plated (15,000/well) and allowed to grow overnight at 37 degrees. Media were removed and 30 μL loading buffer (HBSS with 2.5 mM probenicid, 2 μM Fluo-4, 500 μM Brilliant Black, pH 7.4) was added. After incubation at 37 degrees for 90 minutes, 10 μL of the assay buffer (HBSS with 2.5 mM probenecid, pH 7.4) containing test compounds was added to each well on the FLIPR instrument. Calcium response was monitored to determine agonism. […] Calcium response was then monitored again to determine compound's antagonism to acetylcholine. […] Results were imported into ActivityBase data analysis suite (ID Business Solution Inc., Parsippany, N.J.) where the curves were analysed by non-linear curve fitting and the resulting pEC50/fpKi were calculated. The maximum asymptotes of agonist compounds were calculated as percentage of maximum FLIPR response induced by carbamoylcholine chloride added as control on the same compound plates.

For `COCC1CCC(N2CCC(n3c(=O)oc4ccc(C#N)cc43)CC2)CC1` (mixture of isomers) [Example 1, 3-(1-{4-[(Methyloxy)methyl]cyclohexyl}-4-piperidinyl)-2-oxo-2,3-dihydro-1,3-benzoxazole-5-carbonitrile hydrochloride], the EC50 (FLIPR calcium response, agonism, read-out: average pEC50 at the muscarinic M1 receptor (converted)) is below 3.16 µM. Also, where the note is “maximum asymptote as percentage of maximum FLIPR response induced by carbamoylcholine chloride, read-out: intrinsic activity”, the Emax was above 50%.
